The values that follow come from patent US6436890B1, “Antimicrobial detergent composition” (Inui Corporation, priority 1999, dated 2002).

Read-outs that look alike come from different tables or passages of the source.

What all share (type): cell-based
The subject of assay [1] is Staphylococcus aureus JCI (MRSA). Kind of assay: Antimicrobial power against MRSA, MIC by Nutrient Broth liquid medium dilution method. The settings on record: for MIC: Staphylococcus aureus JCI (MRSA); for Antimicrobial activity against MRSA (in words): at a low concentration. Here is the method:
Antimicrobial power against MRSA (Methicillin-resistant Staphylococcus aureus) of N,N′-hexamethylenebis (4-carbamoyl-1-decylpyridinium bromide) (“Dimer 38” manufactured by INUI CORPORATION) and 4,4′-(tetramethylenecarbonyldiamino)bis(1-decyl-pyridinium bromide) (“Dimer 136” manufactured by INUI CORPORATION). L-broth (5 ml) was inoculated with Staphylococcus aureus JC1 and, after incubation at 37° C. for 18 hours, the MIC (minimum inhibitory concentration) of Dimer 38 and Dimer 136 was measured according to the Nutrient Broth liquid medium dilution method.

The test system of assay [2] is Staphylococcus aureus IFO 12732. The protocol:
(§1) L-broth (5 ml) was inoculated with each bacteria and, after incubation at 37° C. for 18 hours, the MIC (minimum inhibitory concentration) was measured according to the Nutrient Broth liquid medium dilution method.

Assay [3] has as its system Escherichia coli K12W3110. Here is the method:
as §1

For assay [4], the system named is Pseudomonas aeruginosa ATCC 10145. The protocol:
as §1

Assay [5] deals with Bacillus subtilis ATCC 6633. Here is the method:
as §1

In the case of “4,4′-(tetramethylenedicarbonyldiamino)bis(1-decylpyridinium bromide) [Dimer 136]”, in assay [1], the MIC was 0.6 ppm and the “Antimicrobial activity against MRSA (in words)” value was “demonstrate an antimicrobial activity against MRSA”.

For `CC(=O)[O-].CC(=O)[O-].CCCCCCCCCC[n+]1ccc(C(=O)NCCCCCCNC(=O)c2cc[n+](CCCCCCCCCC)cc2)cc1` [Dimer 38A, N,N′-hexamethylenebis(4-carbamoyl-1-decylpyridinium acetate)], the MIC in assay [2] (procedure 1 of 7, S. aureus IFO 12732) is given as 0.1 ppm; in assay [2] (procedure 2 of 7, S. aureus IFO 12732) it was 0.01 ppm; in assay [2] (procedure 3 of 7, S. aureus IFO 12732), 0.05 ppm; in assay [2] (procedure 4 of 7, S. aureus IFO 12732), 0.01 ppm; in assay [2] (procedure 5 of 7, S. aureus IFO 12732) it was 0.1 ppm; in assay [2] (procedure 6 of 7, S. aureus IFO 12732), 0.1 ppm. Besides, the MIC in assay [2] (procedure 7 of 7, S. aureus IFO 12732) is on record as 0.05 ppm; in assay [3] (procedure 1 of 7, E. coli K12W3110), 1.6 ppm; in assay [3] (procedure 2 of 7, E. coli K12W3110), 0.8 ppm; in assay [3] (procedure 3 of 7, E. coli K12W3110), 0.8 ppm; in assay [3] (procedure 4 of 7, E. coli K12W3110), 0.8 ppm; in assay [3] (procedure 5 of 7, E. coli K12W3110), 1.6 ppm. Besides, the MIC in assay [3] (procedure 6 of 7, E. coli K12W3110) is on record as 1.6 ppm; in assay [3] (procedure 7 of 7, E. coli K12W3110) it was 1.6 ppm; in assay [4] (procedure 1 of 7, P. aeruginosa ATCC 10145), 3.1 ppm; in assay [4] (procedure 2 of 7, P. aeruginosa ATCC 10145), 3.1 ppm; in assay [4] (procedure 3 of 7, P. aeruginosa ATCC 10145), 6.3 ppm; in assay [4] (procedure 4 of 7, P. aeruginosa ATCC 10145) it was 6.3 ppm. Also, the MIC in assay [4] (procedure 5 of 7, P. aeruginosa ATCC 10145) is recorded as 6.3 ppm; in assay [4] (procedure 6 of 7, P. aeruginosa ATCC 10145), 6.3 ppm; in assay [4] (procedure 7 of 7, P. aeruginosa ATCC 10145), 3.1 ppm; in assay [5] (procedure 1 of 7, B. subtilis ATCC 6633) it was 0.8 ppm; in assay [5] (procedure 2 of 7, B. subtilis ATCC 6633), 0.2 ppm; in assay [5] (procedure 3 of 7, B. subtilis ATCC 6633), 0.4 ppm. Besides, the MIC in assay [5] (procedure 4 of 7, B. subtilis ATCC 6633) is 0.2 ppm; in assay [5] (procedure 5 of 7, B. subtilis ATCC 6633), 0.4 ppm; in assay [5] (procedure 6 of 7, B. subtilis ATCC 6633), 0.4 ppm; in assay [5] (procedure 7 of 7, B. subtilis ATCC 6633), 0.4 ppm.

In the case of `CCCCCCCCCC[n+]1ccc(C(=O)NCCCCCCNC(=O)c2cc[n+](CCCCCCCCCC)cc2)cc1.[Br-].[Br-]` [Dimer 38, N,N′-Hexamethylenebis(4-carbamoyl-1-decylpyridinium bromide)], in assay [1], the MIC was 0.2 ppm and the “Antimicrobial activity against MRSA (in words)” value was “demonstrate an antimicrobial activity against MRSA”.
